Laboratory results published in a melting point compilation (Tetko et al.; mined from patent text by program, amines drawn as free bases though some values may be those of a salt).

Point of comparison: NC(CF)(Cc1cccc(O)c1)C(=O)O (stereo unspecified), melting point 227 °C. Against it:
- ON1Cc2ccccc2C1=S — lower, 110 to 111 °C
- COP(=O)(Cc1cccc(CP(=O)(OC)OC)c1F)OC — lower, 116 to 118 °C
- COC(=O)CN(NC(N)=O)c1cccc(C)c1 — lower, 68 to 70 °C
- CC(C)(C)C(=O)Oc1ccc2c3c(cnc2c1)CCCC3O[Si](C)(C)C(C)(C)C (stereo unspecified) — lower, 125 to 126 °C
- Brc1cc(-c2ccccc2)cc(-c2ccccc2)c1 — lower, 109 °C
- Nc1ccc(C23CC(C2)C(=O)N(Cc2ccccc2)C3=O)cc1 — lower, 164 to 166 °C
- NC(=O)Cn1ncc2c1CN=C(c1ccccc1)c1cc(Cl)ccc1-2 — lower, 218 to 219 °C
- NC(=O)C1CCc2c(C(=O)c3ccccc3)cccc21 (stereo unspecified) — lower, 164 to 166 °C
- CCCN=C(N)Nc1ccnc(SC)n1 — lower, 177 to 178 °C
- CCOc1ccc(Oc2ccc(CNC(=O)c3sc(C)nc3C)cc2)cc1 — lower, 99 to 101 °C
- CN(C)S(=O)(=O)n1c(C(=S)NCO)nc2cc(Cl)c(Cl)cc21 — lower, 140 to 142 °C
- O=c1ccc(-c2c(-c3ccccc3)nn3ccccc23)nn1C1CCCCC1=NO (stereo unspecified) — higher, 238 to 240 °C
- CC(C)N1N=C(c2ccc3c(c2)CCN(C2CCC2)CC3)CCC1=O — lower, 140 to 141 °C
- Cc1cc2c(cc1Sc1ccc(C(=O)O)c(Cl)c1)C(C)(C)CCC2(C)C — lower, 202 to 205 °C
- Cc1cccc2c1c(C(=O)CC1CCCCCC1)cn2CCO — lower, 98 to 104 °C
- COc1cc(N)c(C(=O)c2ccnc(Cl)c2)cc1OC — lower, 132 to 134 °C
- CC(C1CC1)C1NNC(=S)N(N)C1=O (stereo unspecified) — lower, 142 to 143 °C
- C=C(c1ccc(OC)cc1)c1sc(C)nc1C — lower, 139 to 140 °C
- N#CC(=O)c1ccccc1CF — lower, 41 °C
- COC(=O)COc1cccc(NC(=O)c2cc(-c3cccc(F)c3)ccc2F)c1 — lower, 103 to 104 °C
- CC(C)(O)CCn1c(=O)n(C(=O)N[C@H](C(N)=O)C(C)(C)C)c2ccccc21 — higher, 248 °C
- ON=Cc1ccc2c(c1)ncn2-c1cccc(COCc2ccccn2)c1 — lower, 154 to 155 °C
- COc1ccc(-c2c(C)ncc(C#N)c2Nc2cccc3[nH]ccc23)cc1OC — lower, 182 to 183 °C
- COC(=O)c1nc(N)sc1-c1ccc(SC)cc1 — lower, 184 to 185 °C
- CCN(C1CC(C)(C)Oc2ccc(OCc3ccccc3)cc21)S(C)(=O)=O (stereo unspecified) — lower, 104 to 106 °C
- COc1ccc(C2=NN(Cc3ccccc3N)C(=O)SC2)cc1OC — lower, 105 °C
- CC1(C)CC2(CC(C)(C)N1O)OC1(CCCCCCCCCCC1)NC2=O — higher, 236 to 238 °C
- CN1CCN(c2cc(NC(=O)OC(C)(C)C)c([N+](=O)[O-])cc2I)CC1 — lower, 134 to 136 °C
- CCOCCOC(=O)C(=O)Nc1nc(-c2cc(OC)ccc2OC)cs1 — lower, 140 to 141 °C
- CC(=O)OCc1cc(O)c2c(c1)C(=O)c1cccc(C(C)=O)c1C2=O — lower, 190 to 191 °C
- CNS(=O)(=O)Cc1ccc2c(c1)c(CC#N)cn2Cc1ccccc1 — lower, 133 to 135 °C
- O=[N+]([O-])c1ccc2c(c1)C(=NO)CCO2 — lower, 173 to 178 °C
- Cc1nc(-n2ccc(O)cc2=O)sc1C(=O)NCc1cccc(F)c1 — higher, 250 to 252 °C
- CC1COc2cnc3cc(Cl)ccc3c2N1 (stereo unspecified) — lower, 215 to 217 °C
- O=C(Nc1cccc(O)c1)c1ccc(CSc2ccc(O)cc2)cc1 — lower, 218 to 222 °C
- Cc1cnc(C)c(Cl)c1N — lower, 82 to 83 °C
- COc1ccc(Cn2nnnc2S(=O)(=O)c2ccc(C)cc2)cc1 — lower, 125 to 126 °C
- O=C1c2cccnc2-c2cccnc21 — lower, 158 to 159 °C
- CCCCCc1ccc(CCc2ccc(-c3ccc(OC(F)F)cc3)cc2)cc1 — lower, 121 °C
- CCCCCCCC(CCCCCC)CCOC(=O)c1ccccc1N=NN1CCOCC1 (stereo unspecified) — lower, 40 to 42 °C
- CS(=O)(=O)c1ccc(-n2nc(CNC(=O)Nc3ccc(OC(F)(F)F)cc3)cc2-c2ccccc2)cc1 — lower, 153 to 156 °C
- CN(c1cccc2cc(-c3ncc(CCC(N)=O)s3)[nH]c12)S(=O)(=O)c1cccs1 — higher, 246 to 247 °C
- COc1c(Nc2ncc(Cl)c(N[C@@H]3CCCC[C@H]3NS(C)(=O)=O)n2)ccc2c1CCCC(NCCO)C2 (stereo partly specified) — lower, 92 to 94 °C
- CCCC=Cc1c(C(C)C)nc(C(C)C)c(CO)c1-c1ccc(F)c(F)c1 — lower, 105 to 106 °C
- O=c1[nH]c(C(F)(F)C(F)(F)F)nc2ncc(Br)cc12 — lower, 200 to 202 °C
- COc1ccc(C(CCc2ccccc2)C(=O)O)cc1 (stereo unspecified) — lower, 92 to 97 °C
- NS(=O)(=O)c1cc(C(=O)O)cc(OCc2ccccc2)c1-c1ccccc1 — lower, 199 to 200 °C
- CCC(C(=O)N(C)C)n1cc(Cl)c(-c2ccccc2)n1 (stereo unspecified) — lower, 94 to 96.5 °C
- CC1(Cc2ccccc2)CCNC1=O (stereo unspecified) — lower, 89 to 90 °C
- Clc1c(NC2=NCCN2)ccc2nsnc12 — higher, 232 to 235 °C
